This note sets out measurements from patent publication US11780821B2, “Inhibitors of fibroblast activation protein” (Praxis Biotech LLC, priority 2017, dated 2023).

Molecules are shown by their SMILES. Where two headings read alike, the source gives them in different places. Bounds are passed on as bounds.

What all share (format): biochemical
The target of experiment [1] is T1, recombinant mouse FAPα (rmFAPα) (Mus musculus, UniProt P97321).
T1 construct: purchased R&S system (so in the source)
T1 sequence (P97321 1-761): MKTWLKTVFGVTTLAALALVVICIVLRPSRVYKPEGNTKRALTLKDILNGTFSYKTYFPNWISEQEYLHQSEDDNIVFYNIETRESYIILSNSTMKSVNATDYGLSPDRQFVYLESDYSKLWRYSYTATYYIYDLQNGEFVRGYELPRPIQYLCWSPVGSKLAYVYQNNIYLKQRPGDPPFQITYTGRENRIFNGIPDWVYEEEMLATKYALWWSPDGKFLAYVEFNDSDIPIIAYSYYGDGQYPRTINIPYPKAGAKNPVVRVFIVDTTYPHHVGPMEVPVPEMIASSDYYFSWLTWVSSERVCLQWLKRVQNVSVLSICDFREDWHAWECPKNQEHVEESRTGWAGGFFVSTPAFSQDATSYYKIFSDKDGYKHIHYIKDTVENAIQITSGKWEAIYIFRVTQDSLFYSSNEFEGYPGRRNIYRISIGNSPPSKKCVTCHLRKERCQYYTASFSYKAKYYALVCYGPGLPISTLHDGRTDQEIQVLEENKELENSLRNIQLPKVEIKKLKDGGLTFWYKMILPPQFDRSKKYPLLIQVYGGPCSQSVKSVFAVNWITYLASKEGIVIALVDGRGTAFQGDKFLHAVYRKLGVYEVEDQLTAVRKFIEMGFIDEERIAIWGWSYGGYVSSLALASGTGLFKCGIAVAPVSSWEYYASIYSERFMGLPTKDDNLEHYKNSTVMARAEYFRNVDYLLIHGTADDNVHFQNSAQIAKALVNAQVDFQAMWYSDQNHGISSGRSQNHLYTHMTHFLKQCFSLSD
In words: FAPα enzymatic exopeptidase (dipeptidase) activity assay. Conditions: 1 μM test compound; Z-Gly-Pro-AMC substrate; read-out: rmFAPα (% exo inh @ 1 μM). The procedure:
FAPα enzymatic exopeptidase (dipeptidase) activity assay. […] 7-Amino-4-Methylcoumarin (AMC) release was detected by measuring fluorescence at Ex/Em 380/460 nm using a Multifunction Microplate Reader (Synergy 4, Biotek). All measurements were carried out in duplicate. […] For the calculations, the average measurements from reactions containing only vehicle and substrate, without enzyme, were used as a blank and were subtracted from the rest of the measurements. Percent inhibition was calculated using the average measurements from reactions containing vehicle, enzyme, and substrate as the maximum of enzymatic activity. Measurements were performed as a single point.

In experiment [2] the target is T2, recombinant human DPP9 (rhDPP9) (Homo sapiens, UniProt Q86TI2).
T2 construct: purchased R&S system (so in the source)
The experiment in a line: DPP9 enzymatic activity assay. Conditions: H-Gly-Pro-AMC substrate. The procedure:
(§1) 7-Amino-4-Methylcoumarin (AMC) release was detected by measuring fluorescence at Ex/Em 380/460 nm using a Multifunction Microplate Reader (Synergy 4, Biotek). All measurements were carried out in triplicate.

Experiment [3] has as its target T3, recombinant human FAPα (rhFAPα) (Homo sapiens, UniProt Q12884).
T3 construct: purchased R&S system (so in the source)
T3 sequence (Q12884 1-760): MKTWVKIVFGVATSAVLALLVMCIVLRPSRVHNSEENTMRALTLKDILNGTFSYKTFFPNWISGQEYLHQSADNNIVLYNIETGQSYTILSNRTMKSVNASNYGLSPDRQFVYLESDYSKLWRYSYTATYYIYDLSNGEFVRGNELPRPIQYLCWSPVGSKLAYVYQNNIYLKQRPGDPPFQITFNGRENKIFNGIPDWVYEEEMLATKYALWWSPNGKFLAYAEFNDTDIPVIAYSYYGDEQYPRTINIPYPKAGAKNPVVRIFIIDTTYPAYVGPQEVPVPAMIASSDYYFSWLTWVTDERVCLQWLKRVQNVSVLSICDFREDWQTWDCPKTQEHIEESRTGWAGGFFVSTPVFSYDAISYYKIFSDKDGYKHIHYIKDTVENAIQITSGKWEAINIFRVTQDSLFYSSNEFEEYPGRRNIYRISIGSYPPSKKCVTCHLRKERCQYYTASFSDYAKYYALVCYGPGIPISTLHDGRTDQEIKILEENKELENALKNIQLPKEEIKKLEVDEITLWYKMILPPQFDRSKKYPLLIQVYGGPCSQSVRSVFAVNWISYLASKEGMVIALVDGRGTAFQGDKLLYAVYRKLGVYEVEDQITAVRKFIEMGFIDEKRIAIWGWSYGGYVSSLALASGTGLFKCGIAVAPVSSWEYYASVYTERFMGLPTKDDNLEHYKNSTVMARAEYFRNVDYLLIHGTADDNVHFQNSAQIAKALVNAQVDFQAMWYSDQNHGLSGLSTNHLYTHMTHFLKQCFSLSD
In words: FAPα enzymatic exopeptidase (dipeptidase) activity assay. Conditions: for IC50: exopeptidase, read-out: rhFAPα (exo IC50).

The target of experiment [4] is T4, recombinant mouse DPPIV (rmDPPIV) (Mus musculus, UniProt P28843).
T4 construct: purchased R&S system (so in the source)
The experiment in a line: DPPIV enzymatic activity assay. Conditions: H-Gly-Pro-pNA substrate.

In experiment [5] the target is T1, recombinant mouse FAPα (rmFAPα). In words: FAPα enzymatic exopeptidase (dipeptidase) activity assay. Conditions: for IC50: exopeptidase, read-out: rmFAPα (exo IC50).
In experiment [6] the target is T5, recombinant mouse PREP (rmPREP) (Mus musculus, UniProt Q9QUR6).
T5 construct: purchased R&S system (so in the source)
The experiment in a line: PREP enzymatic activity assay. The settings on record: Z-Gly-Pro-AMC substrate. The method, then:
as §1

For experiment [7], the target named is T6, recombinant human DPPIV (rhDPPIV) (Homo sapiens, UniProt P27487).
T6 construct: purchased R&S system (so in the source)
In words: DPPIV enzymatic activity assay. Conditions: H-Gly-Pro-pNA substrate.

In experiment [8] the target is T7, recombinant human PREP (rhPREP) (Homo sapiens, UniProt P48147).
T7 sequence (P48147 1-710): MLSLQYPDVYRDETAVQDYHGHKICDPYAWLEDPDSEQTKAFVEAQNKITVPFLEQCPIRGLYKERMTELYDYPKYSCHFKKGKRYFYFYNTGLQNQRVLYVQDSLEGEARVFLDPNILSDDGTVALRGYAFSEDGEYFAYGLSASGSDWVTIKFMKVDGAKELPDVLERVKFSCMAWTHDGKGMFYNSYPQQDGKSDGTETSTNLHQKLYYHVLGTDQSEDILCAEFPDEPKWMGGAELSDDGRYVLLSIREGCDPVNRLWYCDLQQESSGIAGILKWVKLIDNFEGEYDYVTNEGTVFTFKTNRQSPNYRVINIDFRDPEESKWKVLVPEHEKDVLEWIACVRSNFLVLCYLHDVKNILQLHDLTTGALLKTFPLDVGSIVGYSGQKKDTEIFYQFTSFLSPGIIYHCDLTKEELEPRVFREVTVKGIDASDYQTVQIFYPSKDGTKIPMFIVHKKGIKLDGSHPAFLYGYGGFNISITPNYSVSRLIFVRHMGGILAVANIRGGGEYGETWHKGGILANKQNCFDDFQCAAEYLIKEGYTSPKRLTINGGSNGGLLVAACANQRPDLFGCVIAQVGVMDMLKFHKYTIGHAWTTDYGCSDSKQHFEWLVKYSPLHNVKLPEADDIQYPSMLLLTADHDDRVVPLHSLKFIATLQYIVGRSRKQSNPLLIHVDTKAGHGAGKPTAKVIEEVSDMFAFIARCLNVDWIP
The experiment in a line: PREP enzymatic activity assay. Conditions: Z-Gly-Pro-AMC substrate. The method, then:
as §1

T4 sequence (P28843 whole entry): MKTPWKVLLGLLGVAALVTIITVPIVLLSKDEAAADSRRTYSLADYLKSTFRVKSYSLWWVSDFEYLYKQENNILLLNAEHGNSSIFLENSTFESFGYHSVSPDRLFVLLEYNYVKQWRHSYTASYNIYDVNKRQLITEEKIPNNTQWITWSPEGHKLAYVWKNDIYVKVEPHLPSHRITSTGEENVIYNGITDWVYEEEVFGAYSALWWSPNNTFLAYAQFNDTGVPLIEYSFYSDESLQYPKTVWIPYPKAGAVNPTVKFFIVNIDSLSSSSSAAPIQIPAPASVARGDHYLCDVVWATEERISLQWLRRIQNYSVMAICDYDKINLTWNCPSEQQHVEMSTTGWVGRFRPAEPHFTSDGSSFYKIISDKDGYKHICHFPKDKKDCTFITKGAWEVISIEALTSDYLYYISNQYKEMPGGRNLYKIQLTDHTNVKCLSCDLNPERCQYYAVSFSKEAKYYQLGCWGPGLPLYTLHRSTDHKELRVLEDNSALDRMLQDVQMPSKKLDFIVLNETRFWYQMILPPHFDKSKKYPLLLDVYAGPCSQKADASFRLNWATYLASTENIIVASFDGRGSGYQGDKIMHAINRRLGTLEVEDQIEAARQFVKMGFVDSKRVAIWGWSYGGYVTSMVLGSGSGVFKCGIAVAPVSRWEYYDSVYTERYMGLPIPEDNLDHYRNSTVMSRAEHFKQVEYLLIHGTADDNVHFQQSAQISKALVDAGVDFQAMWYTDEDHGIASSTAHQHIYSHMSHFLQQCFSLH
T5 sequence (Q9QUR6 whole entry): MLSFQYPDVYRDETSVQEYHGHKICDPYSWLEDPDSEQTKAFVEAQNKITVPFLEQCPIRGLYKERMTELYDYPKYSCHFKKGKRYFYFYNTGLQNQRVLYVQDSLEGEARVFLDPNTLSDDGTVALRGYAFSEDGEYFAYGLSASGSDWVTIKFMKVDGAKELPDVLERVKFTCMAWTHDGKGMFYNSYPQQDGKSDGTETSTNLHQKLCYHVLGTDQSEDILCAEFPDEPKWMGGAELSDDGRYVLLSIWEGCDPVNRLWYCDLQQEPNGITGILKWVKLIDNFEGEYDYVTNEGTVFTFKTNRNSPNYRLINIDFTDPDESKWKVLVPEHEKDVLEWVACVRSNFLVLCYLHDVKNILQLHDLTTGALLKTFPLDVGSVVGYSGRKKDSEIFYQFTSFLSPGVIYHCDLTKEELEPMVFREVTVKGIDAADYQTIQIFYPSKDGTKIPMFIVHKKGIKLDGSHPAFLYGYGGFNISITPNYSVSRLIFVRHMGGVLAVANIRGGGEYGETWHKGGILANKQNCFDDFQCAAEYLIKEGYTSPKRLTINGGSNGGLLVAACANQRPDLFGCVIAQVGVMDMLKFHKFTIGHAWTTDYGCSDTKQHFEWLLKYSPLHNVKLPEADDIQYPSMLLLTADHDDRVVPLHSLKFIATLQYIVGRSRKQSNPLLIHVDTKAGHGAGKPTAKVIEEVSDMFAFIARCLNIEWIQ
T6 sequence (P27487 whole entry): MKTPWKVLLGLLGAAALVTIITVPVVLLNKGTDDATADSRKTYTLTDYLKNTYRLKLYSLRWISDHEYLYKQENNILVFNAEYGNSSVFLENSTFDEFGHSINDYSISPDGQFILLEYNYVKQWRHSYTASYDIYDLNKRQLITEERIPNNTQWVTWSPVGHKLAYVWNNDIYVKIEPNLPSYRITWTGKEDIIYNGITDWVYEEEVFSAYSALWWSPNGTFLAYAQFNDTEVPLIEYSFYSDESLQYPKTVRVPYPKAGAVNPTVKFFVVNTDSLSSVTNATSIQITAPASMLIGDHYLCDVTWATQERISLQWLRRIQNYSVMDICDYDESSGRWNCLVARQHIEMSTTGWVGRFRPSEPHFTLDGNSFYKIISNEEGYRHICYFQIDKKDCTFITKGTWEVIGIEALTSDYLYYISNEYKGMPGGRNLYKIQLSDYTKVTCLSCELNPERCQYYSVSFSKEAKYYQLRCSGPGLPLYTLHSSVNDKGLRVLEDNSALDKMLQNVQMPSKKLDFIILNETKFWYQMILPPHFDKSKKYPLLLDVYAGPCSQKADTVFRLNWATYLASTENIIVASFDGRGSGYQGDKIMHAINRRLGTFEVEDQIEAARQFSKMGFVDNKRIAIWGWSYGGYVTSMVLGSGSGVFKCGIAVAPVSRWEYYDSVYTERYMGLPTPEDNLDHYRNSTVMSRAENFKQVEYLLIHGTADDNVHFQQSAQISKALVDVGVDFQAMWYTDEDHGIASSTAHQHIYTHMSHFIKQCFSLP
T2 sequence (Q86TI2 whole entry): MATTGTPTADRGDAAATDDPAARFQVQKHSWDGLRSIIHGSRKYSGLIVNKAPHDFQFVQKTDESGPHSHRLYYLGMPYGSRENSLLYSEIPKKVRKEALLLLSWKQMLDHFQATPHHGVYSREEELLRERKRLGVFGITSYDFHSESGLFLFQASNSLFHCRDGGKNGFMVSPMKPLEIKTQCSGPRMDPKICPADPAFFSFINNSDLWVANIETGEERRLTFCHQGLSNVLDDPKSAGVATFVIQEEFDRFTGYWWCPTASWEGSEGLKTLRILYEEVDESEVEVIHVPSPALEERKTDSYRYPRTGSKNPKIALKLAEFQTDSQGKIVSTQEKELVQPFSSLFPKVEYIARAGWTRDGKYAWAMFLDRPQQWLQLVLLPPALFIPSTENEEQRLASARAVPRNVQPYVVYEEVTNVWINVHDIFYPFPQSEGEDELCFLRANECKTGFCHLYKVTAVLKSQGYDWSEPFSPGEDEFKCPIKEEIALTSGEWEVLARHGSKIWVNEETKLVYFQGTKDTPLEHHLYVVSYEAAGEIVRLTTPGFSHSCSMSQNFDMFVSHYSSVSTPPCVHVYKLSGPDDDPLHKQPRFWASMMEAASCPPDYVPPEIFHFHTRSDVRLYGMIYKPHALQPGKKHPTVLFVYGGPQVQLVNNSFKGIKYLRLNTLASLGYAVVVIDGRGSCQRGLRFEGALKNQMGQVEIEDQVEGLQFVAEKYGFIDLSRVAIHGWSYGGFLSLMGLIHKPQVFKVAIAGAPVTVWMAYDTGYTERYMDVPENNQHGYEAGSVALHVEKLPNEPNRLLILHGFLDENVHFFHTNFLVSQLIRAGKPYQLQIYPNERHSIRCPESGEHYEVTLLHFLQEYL

In the case of `N#C[C@@H]1CC(F)(F)CN1C(=O)CNC(=O)c1ccc2nc(O)ccc2c1` [Compound 10, (S)—N-(2-(2-cyano-4,4-difluoropyrrolidin-1-yl)-2-oxoethyl)-2-hydroxyquinoline-6-carboxamide], in experiment [1], the inhibition at 1 µM lay in the range of 25 to 50%.
Same read-out and setting: in the case of `N#C[C@@H]1CC(F)(F)CN1C(=O)CNC(=O)C1Cc2ccccc2C1` [Example 7, (S)—N-(2-(2-cyano-4,4-difluoropyrrolidin-1-yl)-2-oxoethyl)-2,3-dihydro-1H-indene-2-carboxamide] it was < 25%.
With `Cn1cc(C(=O)NCC(=O)N2CC(F)(F)C[C@H]2C#N)c2ccccc2c1=O` [Example 9, (S)—N-(2-(2-cyano-4,4-difluoropyrrolidin-1-yl)-2-oxoethyl)-2-methyl-1-oxo-1,2-dihydroisoquinoline-4-carboxamide], the IC50 – broadly, the concentration that gives 50% inhibition – in experiment [2] is > 10000 nM; in experiment [3] (Table 2, Z-Gly-Pro-AMC), < 1000 nM; in experiment [3] (Table 3), < 1000 nM; in experiment [4], > 10000 nM; in experiment [5] (Table 2, Z-Gly-Pro-AMC) it was < 1000 nM; in experiment [5] (Table 3) it was < 1000 nM. Besides, the IC50 in experiment [6] was < 1000 nM. Besides, the inhibition at 1 µM in experiment [1] was > 50%.
Regarding `N#C[C@@H]1CC(F)(F)CN1C(=O)CNC(=O)c1cn(C2CC2)c(=O)c2ccccc12` [Example 3, (S)—N-(2-(2-cyano-4,4-difluoropyrrolidin-1-yl)-2-oxoethyl)-2-cyclopropyl-1-oxo-1,2-dihydroisoquinoline-4-carboxamide], the inhibition at 1 µM in experiment [1] was 25 to 50%.
As to `Cn1cc(C(=O)NCC(=O)N2CC(F)(F)C[C@H]2C#N)ccc1=O` [Compound 16, (S)—N-(2-(2-cyano-4,4-difluoropyrrolidin-1-yl)-2-oxoethyl)-1-methyl-6-oxo-1,6-dihydropyridine-3-carboxamide], the IC50 in experiment [3] (Table 2, Z-Gly-Pro-AMC) was < 1000 nM; in experiment [3] (Table 3) it was < 1000 nM; in experiment [4] it was > 10000 nM; in experiment [6], > 10000 nM. The inhibition at 1 µM in experiment [3] (read-out: rhFAPα (% exo inh @ 1 μM)) was > 50%.
In the case of `N#C[C@@H]1CC(F)(F)CN1C(=O)CNC(=O)c1ccc(=O)[nH]c1` [Example 6, (S)—N-(2-(2-cyano-4,4-difluoropyrrolidin-1-yl)-2-oxoethyl)-6-oxo-1,6-dihydropyridine-3-carboxamide], the IC50 in experiment [7] was > 10000 nM; in experiment [3] (Table 2, Z-Gly-Pro-AMC) it was < 1000 nM; in experiment [4] it was > 10000 nM; in experiment [5] (Table 2, Z-Gly-Pro-AMC), < 1000 nM; in experiment [5] (Table 3), < 1000 nM. Besides, in experiment [5] (read-out: rmFAPα (% exo inh @ 1 μM)), the inhibition at 1 µM was > 50%.
Turning to `N#C[C@@H]1CC(F)(F)CN1C(=O)CNC(=O)c1ccc2ncccc2c1` [Example 4, (S)—N-(2-(2-cyano-4,4-difluoropyrrolidin-1-yl)-2-oxoethyl)quinoline-6-carboxamide], the concentration for half-maximal inhibition (IC50) in experiment [7] is > 10000 nM; in experiment [3] (Table 2, Z-Gly-Pro-AMC), < 1000 nM; in experiment [4] it was 1000 to 10000 nM; in experiment [5] (Table 2, Z-Gly-Pro-AMC), < 1000 nM; in experiment [5] (Table 3), < 1000 nM; in experiment [6], > 10000 nM. In experiment [8], the 50% inhibitory concentration (IC50) was > 10000 nM. Also, the inhibition at 1 µM in experiment [1] was > 50%.
For the compound `N#C[C@@H]1CC(F)(F)CN1C(=O)CNC(=O)c1cn(-c2ccccc2)c(=O)c2ccccc12` [Example 2, (S)—N-(2-(2-cyano-4,4-difluoropyrrolidin-1-yl)-2-oxoethyl)-1-oxo-2-phenyl-1,2-dihydroisoquinoline-4-carboxamide], in experiment [1], the inhibition at 1 µM was 25 to 50%.
For the compound `N#Cc1ccc(C(=O)NCC(=O)N2CC(F)(F)C[C@H]2C#N)cc1C(F)(F)F` [Compound 12, (S)-4-cyano-N-(2-(2-cyano-4,4-difluoropyrrolidin-1-yl)-2-oxoethyl)-3-(trifluoromethyl)benzamide], the inhibition at 1 µM in experiment [1] lay in the range of 25 to 50%.
Regarding `N#C[C@@H]1CC(F)(F)CN1C(=O)CNC(=O)c1ccc(C(N)=O)cc1` [Compound 11, (S)—N-(2-(2-cyano-4,4-difluoropyrrolidin-1-yl)-2-oxoethyl)terephthalamide], the inhibition at 1 µM in experiment [1] lay in the range of 25 to 50%.
Consider `N#C[C@@H]1CC(F)(F)CN1C(=O)CNC(=O)N1Cc2ccccc2C1` [Example 8, (S)—N-(2-(2-cyano-4,4-difluoropyrrolidin-1-yl)-2-oxoethyl) isoindoline-2-carboxamide], for which the inhibition at 1 µM in experiment [1] was < 25%.
`N#C[C@@H]1CC(F)(F)CN1C(=O)CNC(=O)c1ncnc2c1CCC2` [Example 5, (S)—N-(2-(2-cyano-4,4-difluoropyrrolidin-1-yl)-2-oxoethyl)-6,7-dihydro-5H-cyclopenta[d]pyrimidine-4-carboxamide]: the inhibition at 1 µM in experiment [1] was < 25%.
